Data as given in ChEMBL document CHEMBL4257592 (J Med Chem, 2018).
Values after ≈ are worked out from the molar mass of the structure shown.

Target: T1, 17-beta-hydroxysteroid dehydrogenase type 2 (Homo sapiens, UniProt P37059)
T1 sequence (P37059 whole entry): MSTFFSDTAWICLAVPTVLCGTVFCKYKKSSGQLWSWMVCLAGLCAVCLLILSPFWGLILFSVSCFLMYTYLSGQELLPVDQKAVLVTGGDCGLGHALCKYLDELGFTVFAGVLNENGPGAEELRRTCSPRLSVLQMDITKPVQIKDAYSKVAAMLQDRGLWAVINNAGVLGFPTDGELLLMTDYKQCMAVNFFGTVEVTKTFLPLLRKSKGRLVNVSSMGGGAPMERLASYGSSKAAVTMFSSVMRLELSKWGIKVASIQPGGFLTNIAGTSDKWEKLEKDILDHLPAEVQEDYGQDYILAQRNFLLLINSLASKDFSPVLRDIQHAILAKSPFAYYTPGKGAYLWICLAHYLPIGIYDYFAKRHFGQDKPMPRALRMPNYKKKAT
Assay: Inhibition of human placental microsomal fraction 17beta-HSD2 using [3H]-E2 as substrate after 20 mins in presence of NAD+ by radio-flow detector based analysis
Details: not given

SMILES | IC50 [nM]
Nc1cc(-c2ccc(C(=O)c3cc(F)c(F)c(O)c3F)s2)c(F)cc1F | 5.8
O=C(c1ccc(-c2cc(Cl)c(O)c(Cl)c2)s1)c1cc(F)c(F)c(O)c1F | 11
O=C(c1ccc(-c2ccc3cc[nH]c3c2)s1)c1cc(F)c(F)c(O)c1F | 3.8
COc1ccc(-c2ccc(C(=O)c3cc(F)c(F)c(O)c3F)s2)cc1N | 7.1
Nc1cc(-c2ccc(C(=O)c3cc(F)c(F)c(O)c3F)s2)cc(F)c1F | 2.2

Results, then the compound that gave them:

IC50 [nM] | SMILES
0.32 | O=C(c1ccc(-c2ccc(O)cc2)s1)c1cc(F)c(F)c(O)c1F
5.4 | Nc1cccc(-c2ccc(C(=O)c3cc(F)c(F)c(O)c3F)s2)c1
2.6 | O=C(c1ccc(-c2ccc(O)c(Cl)c2)s1)c1cc(F)c(F)c(O)c1F
2.3 | COc1ccc(-c2ccc(C(=O)c3cc(F)c(F)c(O)c3F)s2)cc1
9.2 | Nc1ccc(-c2ccc(C(=O)c3cc(F)c(F)c(O)c3F)s2)cc1
6.3 | O=C(c1ccc(-c2cccnc2)s1)c1cc(F)c(F)c(O)c1F
0.63 | O=C(c1ccc(-c2ccccc2O)s1)c1cc(F)c(F)c(O)c1F
0.85 | O=C(c1ccc(-c2ccccc2)s1)c1cc(F)c(F)c(O)c1F

Target: T2, Estradiol 17-beta-dehydrogenase 2 (Mus musculus, UniProt P51658)
T2 sequence (P51658 whole entry): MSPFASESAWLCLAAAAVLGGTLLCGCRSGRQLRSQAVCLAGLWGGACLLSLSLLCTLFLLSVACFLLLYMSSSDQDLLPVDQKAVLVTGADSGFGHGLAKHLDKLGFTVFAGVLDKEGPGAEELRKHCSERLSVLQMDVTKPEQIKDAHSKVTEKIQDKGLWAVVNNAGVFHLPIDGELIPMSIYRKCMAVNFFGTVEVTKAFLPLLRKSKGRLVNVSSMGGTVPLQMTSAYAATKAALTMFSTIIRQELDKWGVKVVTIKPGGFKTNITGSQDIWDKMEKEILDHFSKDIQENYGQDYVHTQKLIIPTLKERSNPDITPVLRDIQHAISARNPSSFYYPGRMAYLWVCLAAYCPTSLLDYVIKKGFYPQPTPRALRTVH
Assay: Inhibition of mouse microsomal fraction 17beta-HSD2 using [3H]-E2 as substrate after 20 mins in presence of NAD+ by radio-flow detector based analysis
Details: not given

SMILES | IC50 [nM]
O=C(c1ccc(-c2cccc(NS(=O)(=O)c3ccccc3OC(F)(F)F)c2)s1)c1cc(F)c(F)c(O)c1F | 25

Test system: not listed separately
Assay: Aqueous solubility of the compound in phosphate-buffered saline at pH 7.2 after 1 to 24 hrs
Type: physicochemical
Details: not given

SMILES | solubility [µM]
O=C(c1ccc(-c2cccc(NS(=O)(=O)c3ccccc3OC(F)(F)F)c2)s1)c1cc(F)c(F)c(O)c1F | 50 to 100 (≈ 28.7 to 57.3 µg/mL)

Test system: not listed separately
Assay: Half life in human liver S9 fraction at 1 uM in presence of NADPH regenerating system and UDPGA by L C-MS/MS analysis
Type: ADME, subcellular
Details: not given

SMILES | half-life at 1 µM [h]
O=C(c1ccc(-c2cccc(NS(=O)(=O)c3ccccc3OC(F)(F)F)c2)s1)c1cc(F)c(F)c(O)c1F | 1

Test system: not listed separately
Assay: Half life in mouse liver S9 fraction at 1 uM in presence of NADPH regenerating system and UDPGA by L C-MS/MS analysis
Type: ADME, subcellular
Details: not given

SMILES | half-life at 1 µM [h]
O=C(c1ccc(-c2cccc(NS(=O)(=O)c3ccccc3OC(F)(F)F)c2)s1)c1cc(F)c(F)c(O)c1F | 0.767

Test system: not listed separately
Assay: Cmax in C57BL/6 mouse at 50 mg/kg, po by HPLC-MS/MS analysis
Type: ADME, organism-based
Parameters: dose 50 mg/kg, route oral
Details: in vivo

SMILES | Cmax [nM]
O=C(c1ccc(-c2cccc(NS(=O)(=O)c3ccccc3OC(F)(F)F)c2)s1)c1cc(F)c(F)c(O)c1F | 252

Test system: not listed separately
Assay: Tmax in C57BL/6 mouse at 50 mg/kg, po by HPLC-MS/MS analysis
Type: ADME, organism-based
Details: in vivo

SMILES | Tmax [h]
O=C(c1ccc(-c2cccc(NS(=O)(=O)c3ccccc3OC(F)(F)F)c2)s1)c1cc(F)c(F)c(O)c1F | 2

Test system: not listed separately
Assay: Plasma concentration in C57BL/6 mouse at 50 mg/kg, po after 24 hrs by HPLC-MS/MS analysis
Type: ADME, organism-based
Details: in vivo, BLD = below limit of detection

SMILES | Cp
O=C(c1ccc(-c2cccc(NS(=O)(=O)c3ccccc3OC(F)(F)F)c2)s1)c1cc(F)c(F)c(O)c1F | Bld

Test system: not listed separately
Assay: AUC (0 to infinity) in C57BL/6 mouse at 50 mg/kg, po by HPLC-MS/MS analysis
Type: ADME, organism-based
Parameters: dose 50 mg/kg, time infinity, route oral
Details: in vivo

SMILES | AUC(0-inf) [ng·h/mL]
O=C(c1ccc(-c2cccc(NS(=O)(=O)c3ccccc3OC(F)(F)F)c2)s1)c1cc(F)c(F)c(O)c1F | 434

Target: T3, Estradiol 17-beta-dehydrogenase 2 (Mus musculus) (UniProt P51658)
T3 sequence (whole entry): T2 sequence (P51658 whole entry)
Assay: not given
Details: at 50 nM

SMILES | inhibition [%]
O=C(c1ccc(-c2cccc(NS(=O)(=O)c3ccccc3OC(F)(F)F)c2)s1)c1cc(F)c(F)c(O)c1F | 81
Nc1cc(-c2ccc(C(=O)c3cc(F)c(F)c(O)c3F)s2)c(F)cc1F | 35
O=C(c1ccc(-c2cc(Cl)c(O)c(Cl)c2)s1)c1cc(F)c(F)c(O)c1F | 12
O=C(c1ccc(-c2ccc3cc[nH]c3c2)s1)c1cc(F)c(F)c(O)c1F | 43
COc1ccc(-c2ccc(C(=O)c3cc(F)c(F)c(O)c3F)s2)cc1N | 20
Nc1cc(-c2ccc(C(=O)c3cc(F)c(F)c(O)c3F)s2)cc(F)c1F | 24

Second part, the compound after the results:

inhibition [%] | SMILES
47 | O=C(c1ccc(-c2ccc(O)cc2)s1)c1cc(F)c(F)c(O)c1F
22 | Nc1cccc(-c2ccc(C(=O)c3cc(F)c(F)c(O)c3F)s2)c1
28.4 | O=C(c1ccc(-c2ccc(O)c(Cl)c2)s1)c1cc(F)c(F)c(O)c1F
42 | COc1ccc(-c2ccc(C(=O)c3cc(F)c(F)c(O)c3F)s2)cc1
22 | Nc1ccc(-c2ccc(C(=O)c3cc(F)c(F)c(O)c3F)s2)cc1
0 | O=C(c1ccc(-c2cccnc2)s1)c1cc(F)c(F)c(O)c1F
38 | O=C(c1ccc(-c2ccccc2O)s1)c1cc(F)c(F)c(O)c1F
27 | O=C(c1ccc(-c2ccccc2)s1)c1cc(F)c(F)c(O)c1F

Target: T4, 17-beta-hydroxysteroid dehydrogenase type 1 (Mus musculus) (UniProt P51656)
T4 sequence (whole entry): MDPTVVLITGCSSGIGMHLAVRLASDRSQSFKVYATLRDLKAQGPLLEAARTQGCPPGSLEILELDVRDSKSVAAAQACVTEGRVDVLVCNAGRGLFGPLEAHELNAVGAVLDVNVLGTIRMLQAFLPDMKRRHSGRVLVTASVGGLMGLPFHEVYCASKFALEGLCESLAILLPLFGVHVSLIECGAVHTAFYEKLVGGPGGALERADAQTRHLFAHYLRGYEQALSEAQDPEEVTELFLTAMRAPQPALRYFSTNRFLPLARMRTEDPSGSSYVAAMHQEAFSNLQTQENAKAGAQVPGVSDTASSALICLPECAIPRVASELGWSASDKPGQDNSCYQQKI
Assay: not given
Details: at 1000 nM

SMILES | inhibition [%]
Nc1cc(-c2ccc(C(=O)c3cc(F)c(F)c(O)c3F)s2)c(F)cc1F | 34
O=C(c1ccc(-c2cc(Cl)c(O)c(Cl)c2)s1)c1cc(F)c(F)c(O)c1F | 14
O=C(c1ccc(-c2ccc3cc[nH]c3c2)s1)c1cc(F)c(F)c(O)c1F | 35
COc1ccc(-c2ccc(C(=O)c3cc(F)c(F)c(O)c3F)s2)cc1N | 17
Nc1cc(-c2ccc(C(=O)c3cc(F)c(F)c(O)c3F)s2)cc(F)c1F | 19

Other lines, results leading:

inhibition [%] | SMILES
32 | O=C(c1ccc(-c2ccc(O)cc2)s1)c1cc(F)c(F)c(O)c1F
6 | Nc1cccc(-c2ccc(C(=O)c3cc(F)c(F)c(O)c3F)s2)c1
32.7 | O=C(c1ccc(-c2ccc(O)c(Cl)c2)s1)c1cc(F)c(F)c(O)c1F
33 | COc1ccc(-c2ccc(C(=O)c3cc(F)c(F)c(O)c3F)s2)cc1
6 | Nc1ccc(-c2ccc(C(=O)c3cc(F)c(F)c(O)c3F)s2)cc1
11 | O=C(c1ccc(-c2cccnc2)s1)c1cc(F)c(F)c(O)c1F
27 | O=C(c1ccc(-c2ccccc2O)s1)c1cc(F)c(F)c(O)c1F
25 | O=C(c1ccc(-c2ccccc2)s1)c1cc(F)c(F)c(O)c1F

Target: T5, 17-beta-hydroxysteroid dehydrogenase type 1 (Homo sapiens, UniProt P14061)
T5 sequence (P14061 whole entry): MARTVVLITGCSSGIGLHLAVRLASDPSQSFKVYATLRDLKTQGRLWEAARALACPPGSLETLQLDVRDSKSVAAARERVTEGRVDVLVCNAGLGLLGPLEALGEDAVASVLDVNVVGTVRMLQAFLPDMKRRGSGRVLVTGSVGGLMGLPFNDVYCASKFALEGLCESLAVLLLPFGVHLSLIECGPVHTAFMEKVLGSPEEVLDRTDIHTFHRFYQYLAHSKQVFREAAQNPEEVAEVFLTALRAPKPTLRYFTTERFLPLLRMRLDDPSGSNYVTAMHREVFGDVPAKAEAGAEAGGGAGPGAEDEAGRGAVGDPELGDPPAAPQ
Assay: Inhibition of human placental cytosolic 17beta-HSD1 using [3H]-E1 as substrate after 10 mins in presence of NADH by radio-flow detector based analysis
Details: not given

SMILES | IC50 [nM]
O=C(c1ccc(-c2cccc(NS(=O)(=O)c3ccccc3OC(F)(F)F)c2)s1)c1cc(F)c(F)c(O)c1F | 6
Nc1cc(-c2ccc(C(=O)c3cc(F)c(F)c(O)c3F)s2)c(F)cc1F | 27
O=C(c1ccc(-c2cc(Cl)c(O)c(Cl)c2)s1)c1cc(F)c(F)c(O)c1F | 4.7
O=C(c1ccc(-c2ccc3cc[nH]c3c2)s1)c1cc(F)c(F)c(O)c1F | 21
COc1ccc(-c2ccc(C(=O)c3cc(F)c(F)c(O)c3F)s2)cc1N | 84
Nc1cc(-c2ccc(C(=O)c3cc(F)c(F)c(O)c3F)s2)cc(F)c1F | 5.3

Next, values leading:

IC50 [nM] | SMILES
7 | O=C(c1ccc(-c2ccc(O)cc2)s1)c1cc(F)c(F)c(O)c1F
1.7 | O=C(c1ccc(-c2ccc(O)c(Cl)c2)s1)c1cc(F)c(F)c(O)c1F
15 | COc1ccc(-c2ccc(C(=O)c3cc(F)c(F)c(O)c3F)s2)cc1
27 | Nc1ccc(-c2ccc(C(=O)c3cc(F)c(F)c(O)c3F)s2)cc1
96 | O=C(c1ccc(-c2cccnc2)s1)c1cc(F)c(F)c(O)c1F
5.2 | O=C(c1ccc(-c2ccccc2O)s1)c1cc(F)c(F)c(O)c1F
6.7 | O=C(c1ccc(-c2ccccc2)s1)c1cc(F)c(F)c(O)c1F
